Results on 24 molecules are retold here after patent US20230399312A1, “SUBSTITUTED PYRIMIDINES AND METHODS OF USE” (THERAVANCE BIOPHARMA R&D IP, LLC, priority 2020, published 2023).

Where only a bound is given, the exact number is not on record here.

Test [1] deals with TGF-β-stimulated SMAD3 phosphorylation in BEAS-2B cells. As to the kind of experiment: Cellular ALK5 potency assay, inhibition of TGF-β stimulated pSMAD3 formation in BEAS-2B cells. To be noted: Homo sapiens, pSMAD3, TGF-β 10 ng/mL, read-out: BEAS2B pIC50 (converted). It is filed as cell-based. The method in brief: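 Reported as pIC50, potency reflects dose-dependent loss of AlphaLISA pSMAD3 signal versus TGF-β-stimulated, compound-free BEAS-2B cells. Compound was applied for 1 h in BSA-containing HBSS buffer before a 30-min challenge with TGF-β at 10 ng/mL final.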

Test [2] addresses T1, recombinant human ALK5 (TGF-βR1) protein (Homo sapiens, UniProt P36897).
T1 construct: purchased Life Technologies PR9075A
T1 sequence (P36897 34-503): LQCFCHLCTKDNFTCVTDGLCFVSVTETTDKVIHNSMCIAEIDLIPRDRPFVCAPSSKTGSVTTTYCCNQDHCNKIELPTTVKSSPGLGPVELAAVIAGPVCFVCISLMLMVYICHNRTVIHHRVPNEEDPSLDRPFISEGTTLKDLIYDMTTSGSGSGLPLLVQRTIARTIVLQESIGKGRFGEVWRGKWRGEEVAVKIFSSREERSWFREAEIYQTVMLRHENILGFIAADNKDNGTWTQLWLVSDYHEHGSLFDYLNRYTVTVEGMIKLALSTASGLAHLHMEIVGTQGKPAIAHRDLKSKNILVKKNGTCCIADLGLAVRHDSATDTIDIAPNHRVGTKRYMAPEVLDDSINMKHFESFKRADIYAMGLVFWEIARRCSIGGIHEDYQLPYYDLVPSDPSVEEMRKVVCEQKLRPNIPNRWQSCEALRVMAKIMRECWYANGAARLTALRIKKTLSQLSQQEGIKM
As to the kind of experiment: Biochemical ALK5 (TGF-βR1) assay to measure pKi (LANCE Ultra ULight kinase assay). To be noted: apparent pKi, converted from pIC50 by Cheng-Prusoff. In outline:
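Read-out was LANCE Ultra TR-FRET with a europium anti-phospho-Topo IIα Thr1342 antibody after EDTA quench. Kinase reaction ran 60 min at 37 °C with ATP added from a 125 μM 5× stock, after 60 min compound–enzyme equilibration at room temperature. Values are pKi from Cheng-Prusoff conversion of fitted pIC50.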

Consider `Cc1cccc(-c2nccc(Nc3ccnc(Nc4ccc(N5CCCC(C(=O)OC6CCN(C)C6)C5)cc4)n3)n2)n1` (stereo not drawn) [Compound 55, (1-methylpyrrolidin-3-yl) 1-[4-[[4-[[2-(6-methyl-2-pyridyl)pyrimidin-4-yl]amino]pyrimidin-2-yl]amino]phenyl]piperidine-3-carboxylate], for which, in test [1], the IC50 was 25.1 to 158 nM. For the same molecule, the Ki in test [2] is 0.0398 to 0.316 nM.

`Cc1cccc(-c2nccc(Nc3ccnc(Nc4ccc(N5CCCC(C(=O)OC6CNC6)C5)cc4)n3)n2)n1` (stereo not drawn) [Compound 173, azetidin-3-yl 1-[4-[[4-[[2-(6-methyl-2-pyridyl)pyrimidin-4-yl]amino]pyrimidin-2-yl]amino]phenyl]piperidine-3-carboxylate]: in test [1], the IC50 is 25.1 to 158 nM. The Ki in test [2] is 0.0398 to 0.316 nM.

Take `Cc1cccc(-c2nccc(Nc3ccnc(Nc4ccc(CN5CC(C(=O)OC6CNC6)C5)cc4)n3)n2)n1` [Compound 167, azetidin-3-yl 1-[[4-[[4-[[2-(6-methyl-2-pyridyl)pyrimidin-4-yl]amino]pyrimidin-2-yl]amino]phenyl]methyl] azetidine-3-carboxylate]: in test [1], the IC50 was 25.1 to 158 nM. Besides, the Ki in test [2] is 0.0398 to 0.316 nM.

With `COCCn1cc(-c2ccc(Nc3nccc(Nc4ccnc(-c5cccc(C)n5)n4)n3)cc2)cn1` [Compound 169, N2-[4-[1-(2-methoxyethyl)pyrazol-4-yl]phenyl]-N4-[2-(6-methyl-2-pyridyl)pyrimidin-4-yl]pyrimidine-2,4-diamine], the IC50 in test [1] was 25.1 to 158 nM. The Ki in test [2] is 0.398 to 3.16 nM.

In the case of `Cc1cccc(-c2nccc(Nc3ccnc(Nc4ccc(N5CCC(CN)CC5)cc4)n3)n2)n1` [Compound 302, N2-[4-[4-(aminomethyl)-1-piperidyl]phenyl]-N4-[2-(6-methyl-2-pyridyl)pyrimidin-4-yl]pyrimidine-2,4-diamine], the IC50 in test [1] was 25.1 to 158 nM. In addition, the Ki in test [2] is 0.0398 to 0.316 nM.

`Cc1cccc(-c2nccc(Nc3ccnc(Nc4ccc(N5CCC(C(=O)O[C@H]6CCNC6)CC5)cc4)n3)n2)n1` [Compound 185, [(3S)-pyrrolidin-3-yl] 1-[4-[[4-[[2-(6-methyl-2-pyridyl)pyrimidin-4-yl]amino]pyrimidin-2-yl]amino]phenyl]piperidine-4-carboxylate]: the IC50 in test [1] is 25.1 to 158 nM. In addition, the Ki in test [2] is 0.0398 to 0.316 nM.

Turning to `Cc1cccc(-c2nccc(Nc3ccnc(Nc4ccc(C(=O)OC[C@@H]5CCCN5)nc4)n3)n2)n1` [Compound 612, [(2S)-pyrrolidin-2-yl]methyl 5-[[4-[[2-(6-methyl-2-pyridyl)pyrimidin-4-yl]amino]pyrimidin-2-yl]amino]pyridine-2-carboxylate], in test [1], the IC50 was 25.1 to 158 nM. In addition, in test [2], the Ki was 0.0398 to 0.316 nM.

With `Cc1cccc(-c2nccc(Nc3ccnc(Nc4cccc(CN5CCSCC5)c4)n3)n2)n1` [Compound 39, N4-[2-(6-methyl-2-pyridyl)pyrimidin-4-yl]-N2-[3-(thiomorpholinomethyl)phenyl] pyrimidine-2,4-diamine], the IC50 in test [1] is 25.1 to 158 nM. The Ki in test [2] is 0.0398 to 0.316 nM.

With `COC[C@H]1CN(Cc2ccc(Nc3nccc(Nc4ccnc(-c5cccc(C)n5)n4)n3)cc2)CCN1` [Compound 64, N2-[4-[[(3R)-3-(methoxymethyl)piperazin-1-yl]methyl]phenyl]-N4-[2-(6-methyl-2-pyridyl)pyrimidin-4-yl]pyrimidine-2,4-diamine], the IC50 in test [1] is 25.1 to 158 nM. Moreover, the Ki in test [2] was 0.0398 to 0.316 nM.

`Cc1cccc(-c2nccc(Nc3ccnc(Nc4ccc(N5CCOCC5)cc4F)n3)n2)n1` [Compound 502, N2-(2-fluoro-4-morpholino-phenyl)-N4-[2-(6-methyl-2-pyridyl)pyrimidin-4-yl]pyrimidine-2,4-diamine]: the IC50 in test [1] is 25.1 to 158 nM. Also, the Ki in test [2] is 3.98 to 31.6 nM.

Take `Cc1cccc(-c2nccc(Nc3ccnc(Nc4ccc(F)c(CN5C6CCC5CNC6)c4)n3)n2)n1` [Compound 384, N2-[3-(3,8-diazabicyclo[3.2.1]octan-8-ylmethyl)-4-fluoro-phenyl]-N4-[2-(6-methyl-2-pyridyl)pyrimidin-4-yl]pyrimidine-2,4-diamine]: the IC50 in test [1] is 25.1 to 158 nM. Besides, the Ki in test [2] was 0.0398 to 0.316 nM.

As for `Cc1cccc(-c2nccc(Nc3ccnc(Nc4ccnc(C(=O)O)c4)n3)n2)n1` [Compound 610, 4-[[4-[[2-(6-methyl-2-pyridyl)pyrimidin-4-yl]amino]pyrimidin-2-yl]amino]pyridine-2-carboxylic acid], in test [1], the IC50 was 1580 to 10000 nM. In addition, in test [2], the Ki is 0.0398 to 0.316 nM.

On to `Cc1cccc(-c2nccc(Nc3ccnc(Nc4ccc(N5C[C@H]6CC[C@@H](C5)N6)cc4)n3)n2)n1` [Compound 34, N4-[2-(6-methyl-2-pyridyl)pyrimidin-4-yl]-N2-[4-[rac-(1S,5R)-3,8-diazabicyclo[3.2.1]octan-3-yl]phenyl]pyrimidine-2,4-diamine], for which, in test [1], the IC50 is 25.1 to 158 nM. Besides, the Ki in test [2] was 0.0398 to 0.316 nM.

For the molecule `CCNC(=O)Cc1cc(Nc2ccnc(Nc3ccc(N4CCNCC4)cc3)n2)nc(-c2cccc(C)n2)n1` [Compound 1006, N-ethyl-2-[2-(6-methyl-2-pyridyl)-6-[[2-(4-piperazin-1-ylanilino)pyrimidin-4-yl]amino]pyrimidin-4-yl] acetamide], the IC50 in test [1] was 200 to 1260 nM. The Ki in test [2] was 0.398 to 3.16 nM.

In the case of `Cc1cccc(-c2nccc(Nc3ccnc(Nc4ccc(N5CCC(CNCc6ccccn6)CC5)cc4)n3)n2)n1` [Compound 219, N4-[2-(6-methyl-2-pyridyl)pyrimidin-4-yl]-N2-[4-[4-[(2-pyridylmethylamino)methyl]-1-piperidyl]phenyl]pyrimidine-2,4-diamine], in test [1], the IC50 was 25.1 to 158 nM. For the same molecule, the Ki in test [2] was 0.0398 to 0.316 nM.

Regarding `Cc1cccc(-c2nccc(Nc3ccnc(Nc4nc(CN5CCN[C@@H](CO)C5)cs4)n3)n2)n1` [Compound 329, [(2R)-4-[[2-[[4-[[2-(6-methyl-2-pyridyl)pyrimidin-4-yl]amino]pyrimidin-2-yl]amino]thiazol-4-yl]methyl]piperazin-2-yl]methanol], the IC50 in test [1] is 25.1 to 158 nM. For the same molecule, the Ki in test [2] was 0.398 to 3.16 nM.

Take `Cc1cccc(-c2nccc(Nc3ccnc(Nc4ccc(N5CCNCC5)c(CC(=O)O)c4)n3)n2)n1` [Compound 95, 2-[5-[[4-[[2-(6-methyl-2-pyridyl)pyrimidin-4-yl]amino]pyrimidin-2-yl]amino]-2-piperazin-1-yl-phenyl]acetic acid]: the IC50 in test [1] is 200 to 1260 nM. The Ki in test [2] is 0.0398 to 0.316 nM.

Turning to `Cc1cccc(-c2nccc(Nc3ccnc(Nc4ccc(NCCO)cc4)n3)n2)n1` [Compound 321, 2-[4-[[4-[[2-(6-methyl-2-pyridyl)pyrimidin-4-yl]amino]pyrimidin-2-yl]amino]anilino]ethanol], the IC50 in test [1] was 25.1 to 158 nM. In addition, the Ki in test [2] was 0.398 to 3.16 nM.

`Cc1cccc(-c2nccc(Nc3ccnc(Nc4ccc(N5CCN(Cc6ccccn6)CC5)cc4)n3)n2)n1` [Compound 136, N4-[2-(6-methyl-2-pyridyl)pyrimidin-4-yl]-N2-[4-[4-(2-pyridylmethyl)piperazin-1-yl]phenyl]pyrimidine-2,4-diamine]: the IC50 in test [1] was 25.1 to 158 nM. The Ki in test [2] was 0.0398 to 0.316 nM.

As for `Cc1cccc(-c2nccc(Nc3ccnc(Nc4ccc(C5CCCNC5)cc4)n3)n2)n1` (stereo not drawn) [Compound 374, N4-[2-(6-methyl-2-pyridyl)pyrimidin-4-yl]-N2-[4-(3-piperidyl)phenyl]pyrimidine-2,4-diamine], the IC50 in test [1] is 25.1 to 158 nM. In test [2], the Ki is 0.0398 to 0.316 nM.

In the case of `CNC1CCN(c2ccc(Nc3nccc(Nc4ccnc(-c5ccccc5F)n4)n3)cc2)CC1` [Compound 90, N4-[2-(2-fluorophenyl)pyrimidin-4-yl]-N2-[4-[4-(methylamino)-1-piperidyl]phenyl]pyrimidine-2,4-diamine], the IC50 in test [1] was 25.1 to 158 nM. Moreover, in test [2], the Ki was 0.398 to 3.16 nM.

For `Cc1cccc(-c2nccc(Nc3ccnc(Nc4csc(C(=O)OC[C@H]5CC[C@@H](N)CC5)c4)n3)n2)n1` [Compound 563, (4-aminocyclohexyl)methyl 4-[[4-[[2-(6-methyl-2-pyridyl)pyrimidin-4-yl]amino]pyrimidin-2-yl]amino]thiophene-2-carboxylate], the IC50 in test [1] was 200 to 1260 nM. Further, the Ki in test [2] is 0.0398 to 0.316 nM.

For `Cc1cccc(-c2nccc(Nc3ccnc(Nc4nc(C5=CCNCC5)cs4)n3)n2)n1` [Compound 571, N4-[2-(6-methyl-2-pyridyl)pyrimidin-4-yl]-N2-[4-(1,2,3,6-tetrahydropyridin-4-yl)thiazol-2-yl]pyrimidine-2,4-diamine], the IC50 in test [1] is at most 20 nM. For the same molecule, in test [2], the Ki was 0.0398 to 0.316 nM.

On to `Cc1cccc(-c2nccc(Nc3ccnc(Nc4ccc(C(=O)OC[C@H]5CNCCO5)nc4)n3)n2)n1` [Compound 605, [(2R)-morpholin-2-yl]methyl 5-[[4-[[2-(6-methyl-2-pyridyl)pyrimidin-4-yl]amino]pyrimidin-2-yl]amino]pyridine-2-carboxylate], for which, in test [1], the IC50 was 200 to 1260 nM. In addition, in test [2], the Ki is 0.0398 to 0.316 nM.
